The text below walks through data of the RepoRT retention time repository.

A short description of the data set: Waters SunFire C18, 150 × 2.1 mm, 3.5 µm, 25 °C, 0.25 mL/min, estimated dead time 1.3 min; A: water + 0.1% formic acid; B: methanol; gradient (min/%B) 0/5 30/100. As to conditions: stereoisomer not certain.
As to `CC=C1C[N+]2(C)CCc3c([nH]c4ccccc34)C2CC1Cc1nccc2c1[nH]c1ccccc12` (stereo not given), the LC retention time was 15.5 min. Turning to `C=CC1C(OC2OC(CO)C(O)C(O)C2O)OC2OC3CNC4CC1C2(C(=O)OC)C41Nc2ccccc2C31` (stereo not given), the LC retention time was 10.3 min. For the compound `CC=C1CN2CCC34CN5c6c(cccc6C36C2CC1C(C(=O)OC)N6c1ccccc14)C12CCN3CCCC4(CCC51C4C)C32` (stereo not given), the LC retention time is 15 min. `C=CC1CN2CCc3c([nH]c4cc(O)ccc34)C2CC1CC1c2[nH]c3ccccc3c2CCN1C` (stereo not given): the LC retention time was 13.3 min. For `CC=C1CNC2Cc3c([nH]c4ccccc34)C(=O)CC1C2C(=O)OC` (stereo not given) the value was 13.4 min. Regarding `CC=C1CN(C)CC2(C(=O)OC)Cc3c([nH]c4ccccc34)C(=O)CC12` (stereo not given), the LC retention time was 14.3 min. For `COC(=O)C1CC23CCCN4CCC5(c6ccccc6N(C(=O)OC)C15CC2)C43` (stereo not given) the value was 26.9 min; for `CC=C1C[n+]2ccc3c([nH]c4ccccc43)c2CC1C(C(=O)OC)C1OCC2C3CC4N(CCC45c4ccccc4N1C25)CC3CC` (stereo not given), 15.8 min; for `O=C1CC=C2C3CC4N(CCC45c4ccccc4N1C25)CC3=CCO` (stereo not given), 12.1 min. Then `CCC1CN2CCc3c([nH]c4ccccc34)C2CC1CC1c2[nH]c3ccccc3c2CCN1C` (stereo not given), with 14.7 min; and `CCC1=CN2CCC3=c4ccccc4=NC3=C2C=C1`, with 14.4 min. Take `CCC12CCCN3C(=O)C=C(c4ccccc4NC(=O)CC1)C32O` (stereo not given): the LC retention time was 18.1 min.

On to `CCC1(O)CC2CN(CCc3c([nH]c4ccccc34)C(C(=O)OC)(c3cc4c(cc3OC)N(C)C3C(O)(C(=O)OC)C(OC(C)=O)C5(CC)C=CCN6CCC43C65)C2)C1` (stereo not given), for which the LC retention time was 18.6 min. For `CC1OCC2C3CC(=O)C4(CCN(C)CC13)c1ccccc1NC24` (stereo not given) the value was 15.9 min; for `C=Cc1cncc2c(=O)n3c(cc12)-c1[nH]c2ccccc2c1CC3`, 18.3 min. Then `O=C1CC2OCC=C3CN4CCC56c7ccccc7N1C5C2C3CC46O` (stereo not given), with 13.3 min; and `O=C1CC2OCC=C3CN4CCC56c7ccccc7N1C5C2C3CC46` (stereo not given), with 11 min. With `CC=C1CN2CCc3c([nH]c4ccc(O)cc34)C2CC1CCO` (stereo not given), the LC retention time was 11.7 min.

Turning to `CCC1CC2CN3CCc4c([nH]c5ccc(OC)cc45)C(C(=O)OC)(C2)C13` (stereo not given), the LC retention time was 16.8 min. In the case of `CC=C1CN2CCC34Cc5cc6c7c([nH]c6cc5OC35C2CC1C(C(=O)OC)N5c1ccccc14)CCC1(CC)CCCN(CC7)C1` (stereo not given), the LC retention time is 14.7 min.

For the compound `CN1CCC23C(=O)CC4C(=CCOC5CC(=O)N(c6c(O)cccc62)C3C54)C1` (stereo not given), the LC retention time is 13.4 min. For `CC=C1CN(C)CCC23C(=O)CC1C1COC(O)C(=O)N(c4ccccc42)C13` (stereo not given) the value was 12.1 min; for `COC(=O)C1=C2Nc3ccccc3C23CCN2CC4(CC5CC67CCOC6CCN6CCC8(c9cccc(OC)c9N(C4)C58O)C67)C4OCCC4(C1)C23` (stereo not given), 23.3 min; for `CC=C1C[N+]2(C)C3CC1C(C(=O)[O-])C2Cc1c3[nH]c2ccccc12` (stereo not given), 15.6 min. Then `CCC1CN2CCC34c5ccccc5NC3C(CO)C1CC24` (stereo not given), with 10.4 min; and `CCC12C=CCN3CCC4(C(=C(C(=O)OC)C1)Nc1ccccc14)C32` (stereo not given), with 18.2 min; and `CC=C1CN2CCC34CC5C6CC7c8c(c9ccccc9n8C)CC(C6COC5(C)OC35C2CC1C(C(=O)OC)N5c1ccccc14)N7C` (stereo not given), with 17.4 min. In the case of `CC=C1CN(C)C2Cc3c([nH]c4ccccc34)C(=O)CC1C2C(=O)OC` (stereo not given), the LC retention time was 15.3 min.

In the case of `COC(=O)C1=C2Nc3ccccc3C23CCN2CC(C(C)O)C1CC23` (stereo not given), the LC retention time was 10.8 min. For `CCC1CN(C)CC2(C(=O)OC)Cc3c([nH]c4ccccc34)C(=O)CC12` (stereo not given) the value was 15 min; for `CCC1CC2CC3c4[nH]c5ccccc5c4CCN(C2)C13` (stereo not given), 15.3 min; for `COC(=O)C1CC23C=CCN4CCC5(c6ccccc6NC15C2C)C43` (stereo not given), 13.5 min. For `CCC12CCCN3CCc4c(n(c5ccccc45)C(c4ccc5c(c4)C46CCN7CCCC8(CCC4(C(C(=O)OC)C8)N5C)C76)C1)C32` (stereo not given) the value was 18.7 min; for `COC(=O)C1CC23C=CC(=O)N2CCC2(C(=O)OC)c4ccccc4N(C(=O)OC)C12CC3` (stereo not given), 25.1 min; for `C=CC(CO)C1CC[N+]2(C)CCc3c([nH]c4ccccc34)C2C1` (stereo not given), 14.2 min.

Consider `CC=C1CN2CCC34c5ccccc5N5C(=O)C(C6CC78c9ccccc9N9C(=O)C=CC(C%10CC7N6CC%10=CC)C98)=CC(C1CC23)C54` (stereo not given), for which the LC retention time is 15.3 min. Take `CCC1(O)C(=O)OCc2c1cc1n(c2=O)Cc2cc3ccccc3nc2-1` (stereo not given): the LC retention time was 27.2 min. In the case of `COC(=O)N1c2ccc(OC)cc2C23CCN4C(=O)C=CC45CCC12C3C5` (stereo not given), the LC retention time was 28.1 min. As to `C=CC12CN(C)C3C4COC(CC41)C1(C(=O)Nc4ccccc41)C32` (stereo not given), the LC retention time was 9.75 min. Consider `COC(=O)C1C(O)CCC2CN3CCc4c([nH]c5cc(OC)ccc45)C3CC21` (stereo not given), for which the LC retention time is 14.1 min. For `CC1OC=C2C(=O)N3CCc4c([nH]c5ccccc45)C3CC2C1C=O` (stereo not given) the value was 27.3 min; for `C=CC1CN2CCc3c([nH]c4ccccc34)C2CC1C(=COC)C(=O)OC` (stereo not given), 16.7 min; for `CCC1CN(C)C2Cc3c([nH]c4ccccc34)C(O)(c3cc4c5c([nH]c4cc3OC)C3(C(=O)OC)CC4CC(CC)C3N(CC5)C4)CC1C2C(=O)OC` (stereo not given), 16.3 min. Then `COC(=O)C1C(O)CCC2CN3CCc4c([nH]c5ccc(C)cc45)C3CC21` (stereo not given), with 28.8 min; and `CC=C1CN2CCC34C(=O)c5cc6c(cc5OC35C2CC1C(C(=O)OC)N5c1ccccc14)NC12CCC3(CC)CCC[N+]1(CCC62O)C3` (stereo not given), with 13.8 min. With `COC(=O)C1=COC(C)C2CN3CCC4(C(=O)Nc5cc(OC)c(OC)cc54)C3CC12` (stereo not given), the LC retention time was 15.8 min. For the compound `COC(=O)C1CC23CCCN4CCC5(c6cc(Cc7ccc8c(c7)C79CCN%10CCCC%11(CCC7(N8)C(C(=O)O)C%11)C%109)ccc6N(C)C15CC2)C43` (stereo not given), the LC retention time was 18 min. On to `CCC1=C(CC(=O)OC)C(O)(c2nccc3c2[nH]c2ccccc23)OC1=O` (stereo not given), for which the LC retention time was 23.2 min. For `CC=C1CN2C3CC1C(CO)(C(=O)OC)C2Cc1c3n(C)c2ccccc12` (stereo not given) the value was 14.2 min; for `CC=C1CN2CCC3=C([NH2+]c4ccccc43)C2CC1C(Cc1cn2c(c3nc4ccccc4c1-3)CC1C(C(=O)OC)=COC(C)C1C2)C(=O)OC` (stereo not given), 18.2 min. Then `CN1CCC23C(=O)CC4C(=CCOC5CC(=O)N(c6ccccc62)C3C54)C1` (stereo not given), with 13.6 min.

For `Cc1[nH]ccc2c(C)c3nc4ccccc4c3cc12`, the LC retention time was 21.5 min.

Regarding `CCC1CC2CN3CCc4c([nH]c5ccccc45)C(C(=O)OC)(C2)C13` (stereo not given), the LC retention time was 16.9 min. Take `CCC1CN(C)C2Cc3c([nH]c4ccccc34)C(c3c(OC)ccc4c5c([nH]c34)C3([C-]=[O+]OC)CC4CC(CC)C3N(CC5)C4O)CC1C2C(=O)OC` (stereo not given): the LC retention time is 15.1 min. As for `C=CC(CO)C1CCN2CCc3c([nH]c4ccccc34)C2C1` (stereo not given), the LC retention time was 18.5 min. For `CCC1CN2CCc3c([nH]c4ccccc34)C2CC1Cc1nccc2c1[nH]c1ccccc12` (stereo not given) the value was 14.5 min; for `CC=C1C[N+]2(C)CCC34C(=C(C=O)C1CC32)Nc1ccccc14` (stereo not given), 11.3 min.

`CC=C1CN2CCC34C(=C(C(=O)OC)C1CC23)Nc1ccccc14` (stereo not given): the LC retention time is 11.1 min. As to `CC=C1CN2C3CC1C(C(=O)OC)C2Cc1c3[nH]c2ccccc12` (stereo not given), the LC retention time was 16.2 min. For `CC=C1CN(C)C2Cc3c([nH]c4ccccc34)C(c3cc4[nH]c5c(c4cc3OC)CCN3CC4CC(CC)C3C5(C(=O)OC)C4)CC1C2C(=O)OC` (stereo not given) the value was 17.5 min. As to `COC(=O)C1CC23CCCN4CCC5(c6cc(Cc7ccc8c(c7)C79CCN%10CCCC%11(CCC7(C(C(=O)OC)C%11)N8C)C%109)ccc6N(C)C15CC2)C43` (stereo not given), the LC retention time is 19.5 min. For the compound `c1ccc2c(c1)NC13CCC4(CCCN5CCC21C54)CC3` (stereo not given), the LC retention time is 19.5 min.

Turning to `CC=C1CN(C)C2Cc3c([nH]c4ccccc34)C(c3ccc4c5c([nH]c4c3)C3CC4CC(CC)C3N(CC5)C4)CC1C2C(=O)OC` (stereo not given), the LC retention time is 15.3 min.

On to `COC(=O)C1=COC(C)C2CN3CCc4c([nH]c5cc(OC)c(OC)cc45)C3CC12` (stereo not given), for which the LC retention time was 17 min. For `CC=C1CN2CCc3c([nH]c4ccccc34)C2CC1Cc1nccc2c1[nH]c1ccc(O)cc12` (stereo not given) the value was 16.6 min; for `CC=C1CN(C)C2Cc3c(n(C)c4ccccc34)C(=O)CC1C2C(=O)OC` (stereo not given), 16.3 min; for `CCC12CCCN(CCc3c([nH]c4ccccc34)CC1)C2` (stereo not given), 15.1 min. For `COC(=O)C1(COC(=O)C=Cc2ccccc2)C2CC(N(C)CC23OC3C)C23Nc4ccccc4C21CC(=O)O3` (stereo not given) the value was 29.9 min; for `COC(=O)N1c2ccccc2C23CCN4C(=O)C=CC45CCC12C(C5)C(=O)O3` (stereo not given), 24.1 min.

Turning to `CC=C1C[N+]2(C)CCC34c5ccccc5NC32C(O)CC1C4(CO)C(=O)OC` (stereo not given), the LC retention time was 13.4 min. Then `COC(=O)C1CC23CCCN4CCC5(c6ccccc6N(C)C15CC2)C43` (stereo not given), with 17.2 min; and `CCC1CN(C)C2Cc3c([nH]c4ccccc34)C(c3cc4c5c([nH]c4cc3OC)C3(C(=O)OC)CC4CC(CC)C3N(CC5)C4=O)CC1C2C(=O)OC` (stereo not given), with 22.6 min; and `O=c1c2cncc3c2c(c2n1CCc1c-2[nH]c2ccccc12)C=C3`, with 22.1 min. Then `C=CC12C=CCN3CCC4(c5ccccc5NC(=O)C4C1)C32` (stereo not given), with 11.7 min; and `CC=C1CN2C(C3=CC4C5CC6N(CCC67c6ccccc6N(C3=O)C47)CC5=CCO)CC34c5ccccc5N5C(=O)CC=C(C1CC23)C54` (stereo not given), with 15.3 min.
